Measured values: patent publication US7557109B2, “Treatment for attention-deficit hyperactivity disorder” (priority 2001, dated 2009)

Key:
[1] = tested on: 5-HT1B knockout (1BKO) mice; experiment: DRL-36s schedule after FR5 conditioning, 5-HT1B knockout mice; format: in vivo
Experimental: Experiments were conducted in eight identical mouse operant chambers (16×14×13 cm) with stainless steel grid floors (ENV-307M; Med Associates Inc., Georgia, Vt., USA) housed in sound-insulating and ventilated cubicles. Each chamber was equipped with two ultra-sensitive retractable levers, one on each side of a food cup containing photocells to register nose poke behavior and in which a pellet dispenser delivered 20 mg food pellets (Formula A/I, P.J. Noyes Company Inc., Lancaster, N.H., USA). A red house light (50 lux) was located in the center of the wall opposite to the food cup and levers. Stimulus lights were located above each lever and above the food cup. Experimental sessions were controlled and data were recorded by a computer.
Mice trained on DRL procedure first received operant conditioning. DRL-36s task was adapted from procedures used in rats (O'Donnell and Seiden, supra). Briefly, mice first learned to respond for food under a DRL 6 sec schedule, which means that mice had to wait at least 6 seconds between successive lever presses in order to obtain a food reward. Subsequently the schedule requirement was increased every session in steps of 6 sec to 36 sec (DRL 36 sec). Each session started with the illumination of the house light, the stimulus light above the food cup and the presentation of the left lever for the duration of the session. […] If the mouse presses too soon, no reinforcement is given, the clock is reset to zero, and a new 36-sec waiting period starts. In this way, the DRL-36s schedule task primarily measures waiting strategies which reflect hyperactivity-impulsivity behaviors associated with ADHD. Animals were trained until performances on the DRL 36 sec schedule had stabilized (approximately 25 sessions). All training sessions lasted 60 min and were conducted 5 days per week from Monday-Friday. The total number of lever presses (responses), the total number of reinforcements, and the inter-response times (IRT) are recorded.
Data were analyzed as described elsewhere (Richards et al., J. Exp. Anal. Behav. 60:361-385, 1993; Sabol et al., Psychopharmacology 121:57-65, 1995). The inter-response time (IRT) analysis included three measures for the characterization of DRL 36 sec IRT distributions: peak area, peak location and burst ratio. Only peak area (PkA) and peak location (PkL) are presented. The PkA measure is the area of the obtained IRT distribution of a mouse above the corresponding negative exponential, a computation based on mean of obtained IRT durations excluding the burst component of IRT<3 sec (see Richards et al., supra, for details). […] PkL is calculated as the median of the area of the obtained IRT distribution above the corresponding negative exponential. […]

[2] = tested on: coloboma (Cm) mutant mice; format: in vivo
Excerpt: Heterozygote coloboma mice were originally purchased from The Jackson Laboratory (Bar Harbor, Me.) and were bred and maintained in our colony. In the current study, 20 mutant mice and 25 wild-type littermates, all aged 8 to 10 weeks, were used. Animals were divided into 4 groups: mutant/drug-treatment (n=11), mutant/vehicle-control (n=9), wild-type/drug-treatment (n=13), wild-type/vehicle-control (n=12). Age and gender were balanced among groups. All animals were housed as littermates (2-4 mice per cage) and were maintained on ad libitum food and water with a 12 hr light/dark cycle.
Open-field testing was performed under normal lighting conditions. Mice were brought into the experimental room and allowed at least 1 hr of acclimatization. Thirty minutes prior to testing, animals received an ip. injection of either d-amphetamine (4 mg/kg), eltoprazine (0.5 mg/kg) or saline. The mice were then placed in the activity monitor arenas (27×27×20 cm, Med Associates). Four animals of matching genotype and treatment were tested at one time. Each testing session lasted 40 minutes, after which animals were returned to their home cages. An automated infrared beam array system measured locomotor activity (total distance traveled) and number of center entries (zone crossings).

c1cc2c(c(N3CCNCC3)c1)OCCO2 [eltoprazine, 1-(2,3-dihydro-1,4-benzodioxanyl-5-yl) piperazine]
number of reinforcements ([1]; 0.5 mg/kg and 1 mg/kg i.p. (FIG. 13A)): significantly decreased reinforcements
response rate ([1]; 0.5 mg/kg i.p. (FIG. 13B)): significantly decreased response rates
reduction of total ambulatory distance from that of saline-treated Cm mutants ([2]; 0.5 mg/kg i.p.): more than 50%
number of zone crossings ([2]; 0.5 mg/kg i.p. (FIG. 5B)): decreased the number of zone crossings in Cm mutants to within the range of saline-treated wild-type mice
exploratory preference (center vs periphery of arena) ([2]; 0.5 mg/kg i.p. (FIG. 6A, 6B)): no effect on exploratory preference
rearing behavior ([2]; 0.5 mg/kg i.p. vs saline (FIG. 6C, 6D)): same pattern of rearing behavior
total ambulatory distance ([2]; 0.5 mg/kg i.p., 40 min session, saline 17725±6636 cm (FIG. 5A)): 8641±1811
sedative effect ([2]; 0.5 mg/kg i.p., open field): no sedative effect
